{"source": "patent US20260035387A1", "about": "(BIOGEN MA INC., priority 2022, published 2026)", "data": [{"tested_on": "mutant Huntington (HTT) protein", "assay": "HTT Mutant HTRF iPSC assay (mHTT protein lowering)", "type": "cell-based", "conditions": "human iPSC derived from a HTT patient with a poly-Q49 mutation", "units": {"IC50": "nM"}, "values": [{"smiles": "Cc1cn2cc(NC(=O)c3cc4ccc(N5CCC6CCN(C)C6C5)nc4s3)ccc2n1", "note": "(stereo in doubt) [Compound 30, N-(2-methylimidazo[1,2-a]pyridin-6-yl)-6-((3aR,7aR)-1-methyloctahydro-6H-pyrrolo[2,3-c]pyridin-6-yl)thieno[2,3-b]pyridine-2-carboxamide]", "IC50": "100 to 1000"}, {"smiles": "Cc1cn2cc(NC(=O)c3cc4ccc(N5CC6CCC(N(C)C)CC6C5)nc4s3)ccc2n1", "note": "(stereo not drawn) [Compound 32, 6-(5-(dimethylamino)octahydro-2H-isoindol-2-yl)-N-(2-methylimidazo[1,2-a]pyridin-6-yl)thieno[2,3-b]pyridine-2-carboxamide]", "IC50": "1000 to 9000"}, {"smiles": "Cc1cn2cc(NC(=O)c3nc4ccc(N5CCC(N6CCC6)C5)nc4s3)nc(C)c2n1", "note": "(stereo not drawn) [Compound 122, 5-(3-(azetidin-1-yl)pyrrolidin-1-yl)-N-(2,8-dimethylimidazo[1,2-a]pyrazin-6-yl)thiazolo[5,4-b]pyridine-2-carboxamide]", "IC50": "1000 to 9000"}, {"smiles": "Cc1cn2cc(NC(=O)c3cc4ccc(NC5CCC6CN(C)CC65)nc4s3)ccc2n1", "note": "(stereo not drawn) [Compound 13, N-(2-methylimidazo[1,2-a]pyridin-6-yl)-6-((2-methyloctahydrocyclopenta[c]pyrrol-4-yl)amino)thieno[2,3-b]pyridine-2-carboxamide]", "IC50": "1000 to 9000"}, {"smiles": "Cc1cn2cc(NC(=O)c3cc4ccc(N5CCN(C(C)C)CC5)nc4s3)nc(C)c2n1", "note": "[Compound 233, N-(2,8-dimethylimidazo[1,2-a]pyrazin-6-yl)-6-(4-isopropylpiperazin-1-yl)thieno[2,3-b]pyridine-2-carboxamide]", "IC50": "< 100"}, {"smiles": "CN(C)C1CCN(c2ccc3cc(C(=O)Nc4ccc5[nH]c(=O)n(C)c5c4)sc3n2)C1", "note": "(stereo not drawn) [Compound 49, 6-(3-(dimethylamino)pyrrolidin-1-yl)-N-(3-methyl-2-oxo-2,3-dihydro-1H-benzo[d]imidazol-5-yl)thieno[2,3-b]pyridine-2-carboxamide]", "IC50": "1000 to 9000"}, {"smiles": "COc1cn2nc(C)cc2cc1NC(=O)c1cc2ccc(N3CCC(N(C)C)C3)nc2s1", "note": "(single isomer, unassigned) [Compound 205]", "IC50": "< 100"}, {"smiles": "Cc1cn2cc(NC(=O)c3cc4ccc(N5CC[C@@H]6CN(C)C[C@@H]65)nc4s3)nc(C)c2n1", "note": "(racemic) [Compound 194, N-(2,8-dimethylimidazo[1,2-a]pyrazin-6-yl)-6-((3aR,6aR)-5-methylhexahydropyrrolo[3,4-b]pyrrol-1(2H)-yl)thieno[2,3-b]pyridine-2-carboxamide]", "IC50": "< 100"}, {"smiles": "Cc1cn2cc(NC(=O)c3cc4ncc(C5CCCCN5)nc4s3)cc(F)c2n1", "note": "(stereo not drawn) [Compound 144, N-(8-fluoro-2-methylimidazo[1,2-a]pyridin-6-yl)-3-(piperidin-2-yl)thieno[2,3-b]pyrazine-6-carboxamide]", "IC50": "1000 to 9000"}, {"smiles": "Cc1cn2cc(NC(=O)c3cc4ccc(N5CC(N(C)C)C(C)(C)C5)nc4s3)cc(F)c2n1", "note": "(stereo not drawn) [Compound 203, 6-(4-(dimethylamino)-3,3-dimethylpyrrolidin-1-yl)-N-(8-fluoro-2-methylimidazo[1,2-a]pyridin-6-yl)thieno[2,3-b]pyridine-2-carboxamide]", "IC50": "< 100"}, {"smiles": "Cc1cc(NC(=O)c2cc3ccc(N4CCC(N(C)C)C4)nc3s2)cc2cn(C)nc12", "note": "(stereo not drawn) [Compound 4, N-(2,7-dimethyl-2H-indazol-5-yl)-6-(3-(dimethylamino)pyrrolidin-1-yl)thieno[2,3-b]pyridine-2-carboxamide]", "IC50": "100 to 1000"}, {"smiles": "Cc1cn2cc(NC(=O)c3cc4ccc(N5CCN(C)c6ncccc6C5)nc4s3)ccc2n1", "note": "[Compound 31, 6-(1-methyl-1,2,3,5-tetrahydro-4H-pyrido[2,3-e][1,4]diazepin-4-yl)-N-(2-methylimidazo[1,2-a]pyridin-6-yl)thieno[2,3-b]pyridine-2-carboxamide]", "IC50": "100 to 1000"}, {"smiles": "COc1cc2nn(C)cc2cc1NC(=O)c1cc2ccc(N3CCC(N4CCC4)C3)nc2s1", "note": "(stereo not drawn) [Compound 234, 6-(3-(azetidin-1-yl)pyrrolidin-1-yl)-N-(6-methoxy-2-methyl-2H-indazol-5-yl)thieno[2,3-b]pyridine-2-carboxamide]", "IC50": "< 100"}, {"smiles": "COc1cc2nn(C)cc2cc1NC(=O)c1cc2ccc(C3CCN(C)CC3)nc2s1", "note": "[Compound 178, N-(6-methoxy-2-methyl-2H-indazol-5-yl)-6-(1-methylpiperidin-4-yl)thieno[2,3-b]pyridine-2-carboxamide]", "IC50": "< 100"}, {"smiles": "COc1cc(NC(=O)c2nc3ccc(N4CCC5(CCCN5C)C4)nc3s2)cn2cc(C)nc12", "note": "(stereo not drawn) [Compound 95, N-(8-methoxy-2-methylimidazo[1,2-a]pyridin-6-yl)-5-(1-methyl-1,7-diazaspiro[4.4]nonan-7-yl)thiazolo[5,4-b]pyridine-2-carboxamide]", "IC50": "< 100"}, {"smiles": "COc1c(NC(=O)c2nc3ccc(N4CC[C@H](N(C)C)C4)nc3s2)cn2cc(C)nc2c1F", "note": "[Compound 91, (S)-5-(3-(dimethylamino)pyrrolidin-1-yl)-N-(8-fluoro-7-methoxy-2-methylimidazo[1,2-a]pyridin-6-yl)thiazolo[5,4-b]pyridine-2-carboxamide]", "IC50": "< 100"}, {"smiles": "Cc1cn2cc(NC(=O)c3cc4ccc(N5C[C@@H]6C[C@H]5CN6C(C)C)nc4s3)cc(F)c2n1", "note": "[Compound 189, N-(8-fluoro-2-methylimidazo[1,2-a]pyridin-6-yl)-6-((1S,4S)-5-isopropyl-2,5-diazabicyclo[2.2.1]heptan-2-yl)thieno[2,3-b]pyridine-2-carboxamide]", "IC50": "< 100"}, {"smiles": "COc1nc(NC(=O)c2nc3ccc(N4CCC5(CCCN5C)C4)nc3s2)cn2cc(C)nc12", "note": "(stereo not drawn) [Compound 109, N-(8-methoxy-2-methylimidazo[1,2-a]pyrazin-6-yl)-5-(1-methyl-1,7-diazaspiro[4.4]nonan-7-yl)thiazolo[5,4-b]pyridine-2-carboxamide]", "IC50": "< 100"}, {"smiles": "Cc1cn2cc(NC(=O)c3cc4ncc(C5CCNC5)nc4s3)cc(F)c2n1", "note": "(stereo not drawn) [Compound 146, N-(8-fluoro-2-methylimidazo[1,2-a]pyridin-6-yl)-3-(pyrrolidin-3-yl)thieno[2,3-b]pyrazine-6-carboxamide]", "IC50": "< 100"}, {"smiles": "Cc1cn2cc(NC(=O)c3cc4ccc(N5C[C@H]6CN(C)C[C@H]65)nc4s3)cc(F)c2n1", "note": "[Compound 217, N-(8-fluoro-2-methylimidazo[1,2-a]pyridin-6-yl)-6-((1R,5S)-3-methyl-3,6-diazabicyclo[3.2.0]heptan-6-yl)thieno[2,3-b]pyridine-2-carboxamide]", "IC50": "< 100"}, {"smiles": "COc1c(NC(=O)c2nc3ccc(N4CCC5(CN(C)C5)C4)nc3s2)cn2cc(C)nc2c1F", "note": "[Compound 114, N-(8-fluoro-7-methoxy-2-methylimidazo[1,2-a]pyridin-6-yl)-5-(2-methyl-2,6-diazaspiro[3.4]octan-6-yl)thiazolo[5,4-b]pyridine-2-carboxamide]", "IC50": "< 100"}, {"smiles": "Cc1cn2cc(NC(=O)c3nc4ccc(C5CCN(C)C5)nc4s3)nc(C)c2n1", "note": "(stereo not drawn) [Compound 138, N-(2,8-dimethylimidazo[1,2-a]pyrazin-6-yl)-5-(1-methylpyrrolidin-3-yl)thiazolo[5,4-b]pyridine-2-carboxamide]", "IC50": "100 to 1000"}, {"smiles": "Cc1cn2cc(NC(=O)c3cc4ccc(N5C[C@H]6CN(C)C[C@H]65)nc4s3)nc(C)c2n1", "note": "[Compound 218, N-(2,8-dimethylimidazo[1,2-a]pyrazin-6-yl)-6-((1R,5S)-3-methyl-3,6-diazabicyclo[3.2.0]heptan-6-yl)thieno[2,3-b]pyridine-2-carboxamide]", "IC50": "< 100"}, {"smiles": "COc1cc2nn(C)cc2cc1NC(=O)c1cc2nc(N3CC[C@@H](N4CCC4)C3)ccc2o1", "note": "[Compound 172, (R)-5-(3-(azetidin-1-yl)pyrrolidin-1-yl)-N-(6-methoxy-2-methyl-2H-indazol-5-yl)furo[3,2-b]pyridine-2-carboxamide]", "IC50": "100 to 1000"}, {"smiles": "Cc1cn2cc(NC(=O)c3cc4ncc(C5CCNCC5)nc4s3)cc(F)c2n1", "note": "[Compound 148, N-(8-fluoro-2-methyl-imidazo[1,2-a]pyridin-6-yl)-3-(4-piperidyl)thieno[2,3-b]pyrazine-6-carboxamide]", "IC50": "< 100"}, {"smiles": "Cc1cn2cc(NC(=O)c3nc4ccc(N(C)C5CC(C)(C)NC(C)(C)C5)nc4s3)cc(F)c2n1", "note": "[Compound 113, N-(8-fluoro-2-methylimidazo[1,2-a]pyridin-6-yl)-5-(methyl(2,2,6,6-tetramethylpiperidin-4-yl)amino)thiazolo[5,4-b]pyridine-2-carboxamide]", "IC50": "< 100"}, {"smiles": "COc1c(NC(=O)c2nc3ccc(N4CCC5(CCCN5C)C4)nc3s2)cn2cc(C)nc2c1F", "note": "(single isomer, unassigned) [Compound 127]", "IC50": "< 100"}, {"smiles": "Cc1cn2cc(NC(=O)c3nc4ccc(C5=CCCN(C)C5)nc4s3)cc(F)c2n1", "note": "[Compound 133, N-(8-fluoro-2-methylimidazo[1,2-a]pyridin-6-yl)-5-(1-methyl-1,2,5,6-tetrahydropyridin-3-yl)thiazolo[5,4-b]pyridine-2-carboxamide]", "IC50": "< 100"}, {"smiles": "COc1cn2nc(C)cc2cc1NC(=O)c1nc2ccc(N3CCC4(CCCN4C)C3)nc2s1", "note": "(stereo not drawn) [Compound 116, N-(6-methoxy-2-methylpyrazolo[1,5-a]pyridin-5-yl)-5-(1-methyl-1,7-diazaspiro[4.4]nonan-7-yl)thiazolo[5,4-b]pyridine-2-carboxamide]", "IC50": "100 to 1000"}, {"smiles": "COc1cc2nn(C)cc2cc1NC(=O)c1cc2nc(N3CCC(N(C)C)C3)ccc2o1", "note": "(stereo not drawn) [Compound 170, 5-(3-(dimethylamino)pyrrolidin-1-yl)-N-(6-methoxy-2-methyl-2H-indazol-5-yl)furo[3,2-b]pyridine-2-carboxamide]", "IC50": "< 100"}, {"smiles": "Cc1cn2nc(NC(=O)c3cc4ccc(N5CC[C@@H](N(C)C)C5)nc4s3)ccc2n1", "note": "[Compound 53, (R)-6-(3-(dimethylamino)pyrrolidin-1-yl)-N-(2-methylimidazo[1,2-b]pyridazin-6-yl)thieno[2,3-b]pyridine-2-carboxamide]", "IC50": "1000 to 9000"}, {"smiles": "Cc1cn2cc(NC(=O)c3cc4ncc(N5CC(C)(N)C5)nc4s3)cc(F)c2n1", "note": "[Compound 258, 3-(3-amino-3-methylazetidin-1-yl)-N-(8-fluoro-2-methylimidazo[1,2-a]pyridin-6-yl)thieno[2,3-b]pyrazine-6-carboxamide]", "IC50": "< 100"}, {"smiles": "Cc1cn2cc(NC(=O)c3cc4ccc(N5CCCC5)nc4s3)nc(C)c2n1", "note": "[Compound 57, N-(2,8-dimethylimidazo[1,2-a]pyrazin-6-yl)-6-(pyrrolidin-1-yl)thieno[2,3-b]pyridine-2-carboxamide]", "IC50": "1000 to 9000"}]}]}
